Results: ChEMBL document CHEMBL1143923, “Synthesis, anti-HIV-1 activity, and modeling studies of N-3 Boc TSAO compound” (Bioorg Med Chem Lett, 2008)
The source made the active and inactive calls. The calls are words filed in the database; no cut-off is given here.

Key:
[1] = system: Human immunodeficiency virus 2; test: Antiviral activity against HIV2 ROD in CEM cells assessed as inhibition of viral replication; assay type: functional, organism-based; settings: CCRF-CEM
[2] = system: Human immunodeficiency virus 1; test: Antiviral activity against HIV1 3B in CEM cells assessed as inhibition of viral replication; assay type: functional, organism-based; settings: Human immunodeficiency virus 1, 3B, CCRF-CEM
[3] = Cytotoxicity against human CEM cells; assay type: cell-based; settings: CEM (CCRF-CEM) cells

| SMILES | Activity [1] | EC50 [2] [nM] | CC50 [3] [nM] |
| --- | --- | --- | --- |
| Cc1cn([C@@H]2O[C@H](CO[Si](C)(C)C(C)(C)C)[C@@]3(OS(=O)(=O)C=C3N)[C@H]2O[Si](C)(C)C(C)(C)C)c(=O)[nH]c1=O | inactive | 60 |  |
| Cc1cn([C@@H]2O[C@H](CO[Si](C)(C)C(C)(C)C)[C@@]3(OS(=O)(=O)C=C3N)[C@H]2O[Si](C)(C)C(C)(C)C)c(=O)n(C)c1=O | inactive | 130 |  |
| Cc1cn([C@@H]2O[C@H](CO[Si](C)(C)C(C)(C)C)[C@@]3(OS(=O)(=O)C=C3N)[C@H]2O[Si](C)(C)C(C)(C)C)c(=O)n(C(=O)OC(C)(C)C)c1=O | inactive | 23 | 26200 |
